Results: ChEMBL document CHEMBL5291721, “A preclinical secondary pharmacology resource illuminates target-adverse drug reaction associations of marketed drugs” (Nat Commun, 2023)

Experiments:
[1] = target: T1, Type-1 angiotensin II receptor (Homo sapiens, UniProt P30556)
T1 sequence (P30556 whole entry): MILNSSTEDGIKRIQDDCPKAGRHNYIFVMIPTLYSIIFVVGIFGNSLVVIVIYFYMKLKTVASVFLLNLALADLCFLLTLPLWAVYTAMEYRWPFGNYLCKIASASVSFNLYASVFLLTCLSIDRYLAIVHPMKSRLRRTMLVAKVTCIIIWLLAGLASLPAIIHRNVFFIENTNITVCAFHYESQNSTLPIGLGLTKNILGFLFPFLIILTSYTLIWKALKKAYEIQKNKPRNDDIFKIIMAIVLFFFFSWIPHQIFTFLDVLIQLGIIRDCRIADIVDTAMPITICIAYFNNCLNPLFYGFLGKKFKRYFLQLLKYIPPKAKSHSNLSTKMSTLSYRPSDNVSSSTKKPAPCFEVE

[2] = target: T2, Cholecystokinin receptor type A (Homo sapiens, UniProt P32238)
T2 sequence (P32238 whole entry): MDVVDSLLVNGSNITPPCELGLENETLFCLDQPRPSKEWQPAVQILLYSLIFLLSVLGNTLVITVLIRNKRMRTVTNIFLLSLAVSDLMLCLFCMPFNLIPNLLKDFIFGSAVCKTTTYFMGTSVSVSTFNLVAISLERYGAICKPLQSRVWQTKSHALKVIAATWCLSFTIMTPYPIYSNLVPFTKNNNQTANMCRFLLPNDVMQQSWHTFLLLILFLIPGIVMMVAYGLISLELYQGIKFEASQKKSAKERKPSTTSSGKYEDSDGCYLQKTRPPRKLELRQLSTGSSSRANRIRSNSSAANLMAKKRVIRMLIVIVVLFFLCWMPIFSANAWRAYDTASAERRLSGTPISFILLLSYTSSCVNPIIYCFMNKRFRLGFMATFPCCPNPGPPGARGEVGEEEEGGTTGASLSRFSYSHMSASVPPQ

[3] = target: T3, Alpha-2A adrenergic receptor (Homo sapiens, UniProt P08913); assay type: functional, cell-based
T3 sequence (P08913 whole entry): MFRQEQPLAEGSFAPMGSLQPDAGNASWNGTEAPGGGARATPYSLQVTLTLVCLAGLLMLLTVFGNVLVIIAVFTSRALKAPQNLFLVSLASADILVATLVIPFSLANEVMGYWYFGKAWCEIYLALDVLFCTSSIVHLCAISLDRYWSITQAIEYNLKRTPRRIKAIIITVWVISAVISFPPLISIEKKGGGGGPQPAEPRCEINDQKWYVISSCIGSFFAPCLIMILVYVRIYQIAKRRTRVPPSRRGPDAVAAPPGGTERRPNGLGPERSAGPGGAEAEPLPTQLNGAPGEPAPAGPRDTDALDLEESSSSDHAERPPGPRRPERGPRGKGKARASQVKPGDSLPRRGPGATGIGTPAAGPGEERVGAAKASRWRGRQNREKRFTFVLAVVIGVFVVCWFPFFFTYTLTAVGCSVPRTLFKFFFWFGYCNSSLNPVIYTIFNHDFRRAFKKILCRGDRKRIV

[4] = target: 5-hydroxytryptamine receptor 2B (Homo sapiens, UniProt P41595); assay type: functional, cell-based
Chain of 5-hydroxytryptamine receptor 2B (P41595 whole entry): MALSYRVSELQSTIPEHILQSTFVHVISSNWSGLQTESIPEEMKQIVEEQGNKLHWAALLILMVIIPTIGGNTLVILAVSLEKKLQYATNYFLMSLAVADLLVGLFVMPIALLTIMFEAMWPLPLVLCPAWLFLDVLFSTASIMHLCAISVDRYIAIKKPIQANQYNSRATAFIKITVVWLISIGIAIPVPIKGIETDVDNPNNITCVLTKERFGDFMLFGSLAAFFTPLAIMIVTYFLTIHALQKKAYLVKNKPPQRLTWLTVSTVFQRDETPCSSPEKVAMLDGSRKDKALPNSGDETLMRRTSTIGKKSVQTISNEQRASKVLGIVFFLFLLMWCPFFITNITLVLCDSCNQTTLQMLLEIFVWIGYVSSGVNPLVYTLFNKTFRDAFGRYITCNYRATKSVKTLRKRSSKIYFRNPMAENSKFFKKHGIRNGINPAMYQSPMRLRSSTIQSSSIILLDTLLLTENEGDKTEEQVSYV

[5] = target: T4, Alpha-1A adrenergic receptor (Homo sapiens, UniProt P35348); assay type: functional, cell-based
T4 sequence (P35348 whole entry): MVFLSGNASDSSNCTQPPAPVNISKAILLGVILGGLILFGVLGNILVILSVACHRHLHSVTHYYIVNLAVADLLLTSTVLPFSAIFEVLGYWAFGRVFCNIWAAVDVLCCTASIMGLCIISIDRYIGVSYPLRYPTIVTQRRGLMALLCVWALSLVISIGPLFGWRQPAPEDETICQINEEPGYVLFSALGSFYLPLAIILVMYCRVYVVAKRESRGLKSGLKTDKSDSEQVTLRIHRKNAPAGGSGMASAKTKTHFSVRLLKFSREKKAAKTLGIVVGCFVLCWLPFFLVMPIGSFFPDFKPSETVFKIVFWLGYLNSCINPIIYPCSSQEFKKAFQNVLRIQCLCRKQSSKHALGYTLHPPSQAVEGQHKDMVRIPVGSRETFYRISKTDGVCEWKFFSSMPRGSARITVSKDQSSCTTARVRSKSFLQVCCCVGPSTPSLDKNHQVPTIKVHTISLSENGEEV

[6] = target: Growth hormone secretagogue receptor type 1 (Homo sapiens, UniProt Q92847)
Chain of Growth hormone secretagogue receptor type 1 (Q92847 whole entry): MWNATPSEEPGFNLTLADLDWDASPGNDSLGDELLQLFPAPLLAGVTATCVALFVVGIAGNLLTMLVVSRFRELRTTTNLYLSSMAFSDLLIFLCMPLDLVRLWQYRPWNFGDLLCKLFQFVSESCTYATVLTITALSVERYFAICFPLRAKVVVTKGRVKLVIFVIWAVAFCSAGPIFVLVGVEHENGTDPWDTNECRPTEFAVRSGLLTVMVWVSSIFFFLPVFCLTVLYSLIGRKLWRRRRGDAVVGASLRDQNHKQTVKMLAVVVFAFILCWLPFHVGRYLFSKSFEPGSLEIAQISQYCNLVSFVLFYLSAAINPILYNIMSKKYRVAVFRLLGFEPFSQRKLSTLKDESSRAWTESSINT

Mu-type opioid receptor = Mu-type opioid receptor (Homo sapiens, UniProt P35372); test: biochemical; assay type: functional
Chain of Mu-type opioid receptor (P35372 whole entry): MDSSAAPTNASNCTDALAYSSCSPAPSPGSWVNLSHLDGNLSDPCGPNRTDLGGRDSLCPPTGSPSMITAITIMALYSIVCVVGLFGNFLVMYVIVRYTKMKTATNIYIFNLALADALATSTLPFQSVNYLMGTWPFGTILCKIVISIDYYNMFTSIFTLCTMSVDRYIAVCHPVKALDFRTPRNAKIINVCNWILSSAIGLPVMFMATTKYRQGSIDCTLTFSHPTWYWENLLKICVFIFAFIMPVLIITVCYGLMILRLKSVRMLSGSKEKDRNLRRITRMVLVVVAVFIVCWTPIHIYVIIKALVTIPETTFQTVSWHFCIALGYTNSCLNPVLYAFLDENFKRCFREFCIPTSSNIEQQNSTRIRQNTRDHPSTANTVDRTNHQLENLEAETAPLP

[7] = target: T5, Gastrin/cholecystokinin type B receptor (Homo sapiens, UniProt P32239)
T5 sequence (P32239 whole entry): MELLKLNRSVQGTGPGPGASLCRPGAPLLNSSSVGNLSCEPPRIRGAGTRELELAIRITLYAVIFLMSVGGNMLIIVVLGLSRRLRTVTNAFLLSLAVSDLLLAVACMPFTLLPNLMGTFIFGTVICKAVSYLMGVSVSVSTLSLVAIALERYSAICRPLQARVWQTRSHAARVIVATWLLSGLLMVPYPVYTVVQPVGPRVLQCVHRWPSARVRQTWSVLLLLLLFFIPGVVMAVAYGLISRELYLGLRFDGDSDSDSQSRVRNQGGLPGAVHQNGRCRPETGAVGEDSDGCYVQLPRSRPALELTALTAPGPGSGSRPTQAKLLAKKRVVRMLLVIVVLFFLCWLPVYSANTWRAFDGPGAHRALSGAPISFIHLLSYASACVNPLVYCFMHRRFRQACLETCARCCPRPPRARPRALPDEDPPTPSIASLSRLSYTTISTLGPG

Adenosine receptor A3 = target: T6, Adenosine receptor A3 (Homo sapiens, UniProt P0DMS8)
T6 sequence (P0DMS8 whole entry): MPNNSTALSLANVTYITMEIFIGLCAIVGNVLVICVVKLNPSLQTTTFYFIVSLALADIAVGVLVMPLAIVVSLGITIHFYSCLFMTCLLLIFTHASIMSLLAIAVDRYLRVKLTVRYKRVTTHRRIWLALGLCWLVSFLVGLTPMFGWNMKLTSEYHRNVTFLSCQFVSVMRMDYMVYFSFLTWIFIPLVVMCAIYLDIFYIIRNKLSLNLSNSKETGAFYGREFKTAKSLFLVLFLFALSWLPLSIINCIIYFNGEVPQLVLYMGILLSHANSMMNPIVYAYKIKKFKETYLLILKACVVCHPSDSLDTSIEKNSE
Further: assay procedure not described here.

| AC50 [1] | AC50 [2] | AC50 [3] | AC50 [4] | AC50 [5] | AC50 [6] | AC50 (Mu-type opioid receptor) | AC50 [7] | AC50 (Adenosine receptor A3) | SMILES |
| --- | --- | --- | --- | --- | --- | --- | --- | --- | --- |
| > 30 µM | > 30 µM | > 30 µM | > 30 µM | > 30 µM | > 30 µM | > 30 µM | > 30 µM | 18.4 µM | CCCCCC(=O)O[C@]1(C(C)=O)CC[C@H]2[C@@H]3CCC4=CC(=O)CC[C@]4(C)[C@H]3CC[C@@]21C [HYDROXYPROGESTERONE CAPROATE] |
| > 30 µM | > 30 µM | > 30 µM | > 30 µM | > 30 µM | > 30 µM | > 30 µM | > 30 µM | > 30 µM | CC1=C(C)C(=O)C(C(CCCCCC(=O)O)c2ccccc2)=C(C)C1=O (stereo not drawn) [SERATRODAST] |
